Measured values published in patent US20200002283A1, “PYRAZOLE DERIVATIVES HAVING ACTIVITY AGAINST PAIN” (priority 2016, published 2020).
pKi: −log10 of the molar value. Where two headings read alike, the source gives them in different places.

Key:
human μ-opioid receptor = target: T1, human μ-opioid receptor (Homo sapiens, UniProt P35372); assay: Human μ-opioid receptor radioligand assay ([3H]-DAMGO); type: binding
T1 construct: expressed in transfected cells; host or cells: CHO-K1
Procedure: Human μ-Opioid Receptor Radioligand Assay
To investigate binding properties of test compounds to human μ-opioid receptor, transfected CHO-K1 cell membranes and [^3H]-DAMGO (Perkin Elmer, ES-542-C), as the radioligand, were used. The assay was carried out with 20 μg of membrane suspension, 1 nM of [^3H]-DAMGO in either absence or presence of either buffer or 10 μM Naloxone for total and non-specific binding, respectively. Binding buffer contained Tris-HCl 50 mM, MgCl2 5 mM at pH 7.4. Plates were incubated at 27° C. for 60 minutes. After the incubation period, the reaction mix was then transferred to MultiScreen HTS, FC plates (Millipore), filtered and plates were washed 3 times with ice-cold 10 mM Tris-HCL (pH 7.4). Filters were dried and counted at approximately 40% efficiency in a MicroBeta scintillation counter (Perkin-Elmer) using EcoScint liquid scintillation cocktail.

[1] = target: Human α2δ-1 subunit of Cav2.2 calcium channel (Homo sapiens, UniProt P54289); assay: Human α2δ-1 subunit of Cav2.2 calcium channel assay ([3H]-Gabapentin binding)
Procedure: Human α2δ-1 Subunit of Cav2.2 Calcium Channel Assay
Human α2δ-1 enriched membranes (2.5 μg) were incubated with 15 nM of radiolabeled [3H]-Gabapentin in assay buffer containing Hepes-KOH 10 mM, pH 7.4. NSB (non specific binding) was measured by adding 10 μM pregabalin. After 60 min incubation at 27° C., binding reaction was terminated by filtering through Multiscreen GF/C (Millipore) presoaked in 0.5% polyethyleneimine in Vacuum Manifold Station, followed by 3 washes with ice-cold filtration buffer containing 50 mM Tris-HCl, pH 7.4. Filter plates were dried at 60° C. for 1 hour and 30 μl of scintillation cocktail were added to each well before radioactivity reading. Readings were performed in a Trilux 1450 Microbeta radioactive counter (Perkin Elmer).

[2] = transfected CHO-K1 cell membranes, 1 nM [3H]-DAMGO, read-out: μ binding
[3] = human α2δ-1 enriched membranes, 15 nM [3H]-Gabapentin, read-out: α2δ-1 binding

T1 sequence (P35372 whole entry): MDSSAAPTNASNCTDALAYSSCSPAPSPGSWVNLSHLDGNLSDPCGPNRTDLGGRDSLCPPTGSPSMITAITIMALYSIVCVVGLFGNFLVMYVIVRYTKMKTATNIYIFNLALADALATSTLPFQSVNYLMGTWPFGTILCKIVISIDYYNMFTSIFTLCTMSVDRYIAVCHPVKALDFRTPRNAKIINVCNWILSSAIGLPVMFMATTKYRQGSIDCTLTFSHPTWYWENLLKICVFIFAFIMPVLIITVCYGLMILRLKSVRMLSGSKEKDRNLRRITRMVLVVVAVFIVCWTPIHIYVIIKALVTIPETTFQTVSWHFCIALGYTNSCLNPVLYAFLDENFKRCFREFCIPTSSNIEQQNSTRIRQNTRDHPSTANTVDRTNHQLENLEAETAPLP
Human α2δ-1 subunit of Cav2.2 calcium channel, sequence (P54289 25-1103): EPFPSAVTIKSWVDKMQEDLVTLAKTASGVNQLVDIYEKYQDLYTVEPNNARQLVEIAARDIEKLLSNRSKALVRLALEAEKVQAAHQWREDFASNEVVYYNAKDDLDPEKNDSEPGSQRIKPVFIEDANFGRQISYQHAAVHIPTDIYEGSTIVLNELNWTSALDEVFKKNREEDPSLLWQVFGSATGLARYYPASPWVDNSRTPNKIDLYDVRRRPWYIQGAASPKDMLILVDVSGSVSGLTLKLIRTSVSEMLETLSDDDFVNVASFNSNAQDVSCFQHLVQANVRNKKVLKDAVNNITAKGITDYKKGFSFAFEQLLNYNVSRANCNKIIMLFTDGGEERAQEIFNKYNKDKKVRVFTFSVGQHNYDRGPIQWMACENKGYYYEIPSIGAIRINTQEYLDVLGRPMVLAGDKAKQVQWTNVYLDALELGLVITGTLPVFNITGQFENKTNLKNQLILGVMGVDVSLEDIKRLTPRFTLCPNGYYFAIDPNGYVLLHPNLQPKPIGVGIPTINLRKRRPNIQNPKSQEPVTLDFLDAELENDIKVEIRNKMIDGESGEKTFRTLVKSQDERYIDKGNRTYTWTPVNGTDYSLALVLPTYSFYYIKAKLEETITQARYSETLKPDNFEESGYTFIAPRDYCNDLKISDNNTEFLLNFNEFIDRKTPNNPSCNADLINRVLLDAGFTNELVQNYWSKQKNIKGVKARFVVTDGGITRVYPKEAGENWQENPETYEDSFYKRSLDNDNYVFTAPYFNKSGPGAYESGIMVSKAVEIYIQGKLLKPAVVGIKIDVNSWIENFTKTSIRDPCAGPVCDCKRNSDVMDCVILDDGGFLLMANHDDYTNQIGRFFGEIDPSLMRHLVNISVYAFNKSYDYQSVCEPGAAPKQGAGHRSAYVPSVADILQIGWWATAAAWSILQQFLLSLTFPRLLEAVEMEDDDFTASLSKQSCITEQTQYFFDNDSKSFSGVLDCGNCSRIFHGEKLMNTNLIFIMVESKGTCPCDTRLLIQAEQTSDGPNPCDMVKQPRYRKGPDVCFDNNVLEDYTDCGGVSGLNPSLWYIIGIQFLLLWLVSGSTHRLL

Compound | pKi (human μ-opioid receptor; [2]) | pKi [1, 3] | pKi (human μ-opioid receptor) | pKi [1]
COc1ccc(Cc2cc(CN)nn2C(C)c2ccccc2)cc1 (stereo not shown) [Example 16, [5-(4-Methoxybenzyl)-1-(1-phenylethyl)-1H-pyrazol-3-yl]methanamine] | < 6.30 | 5.52 to 6.30 | – | –
COc1ccc(Oc2cc(CN)nn2-c2ccc(Cl)cc2Cl)cc1 [Example 17, [1-(2,4-Dichlorophenyl)-5-(4-methoxyphenoxy)-1H-pyrazol-3-yl]methanamine] | – | – | 6.30 to 7.00 | 5.30 to 5.52
COc1ccc(Cc2cc(CN(C)C)nn2-c2ccc(Cl)cc2Cl)cc1 [Example 21, 1-[1-(2,4-Dichlorophenyl)-5-(4-methoxybenzyl)-1H-pyrazol-3-yl]-N,N-dimethylmethanamine] | < 6.30 | 5.30 to 5.52 | – | –
CCNCc1cc(Cc2ccc(OC)cc2)n(CC(C)C)n1 [Example 23, N-{[1-Isobutyl-5-(4-methoxybenzyl)-1H-pyrazol-3-yl]methyl}ethanamine] | < 6.30 | 5.52 to 6.30 | – | –
COc1ccc(Cc2cc(C(C)N)nn2-c2ccc(Cl)cc2Cl)cc1 (stereo not shown) [Example 24, 1-[1-(2,4-Dichlorophenyl)-5-(4-methoxybenzyl)-1H-pyrazol-3-yl]ethanamine] | – | – | 6.30 to 7.00 | 5.52 to 6.30
CC(N)c1cc(Cc2ccc(NS(C)(=O)=O)cc2)n(-c2ccc(Cl)cc2Cl)n1 (stereo not shown) [Example 26, N-(4-{[3-(1-Aminoethyl)-1-(2,4-dichlorophenyl)-1H-pyrazol-5-yl]methyl}phenyl)methanesulfonamide] | < 6.30 | 5.52 to 6.30 | – | –
COc1ccc(-n2nc(C(C)N)cc2Cc2ccc(O)cc2)c(Cl)c1 (stereo not shown) [Example 27, 4-{[3-(1-Aminoethyl)-1-(2-chloro-4-methoxyphenyl)-1H-pyrazol-5-yl]methyl}phenol] | – | – | > 7.00 | > 6.30
COc1cc(Cl)ccc1-n1nc(C(C)N)cc1Cc1ccc(O)cc1 (stereo not shown) [Example 29, 4-{[3-(1-Aminoethyl)-1-(4-chloro-2-methoxyphenyl)-1H-pyrazol-5-yl]methyl}phenol] | < 6.30 | < 5.30 | – | –
COc1ccc(Cc2cc(C(C)N)nn2-c2ccc(Cl)cc2Cl)cc1F (stereo not shown) [Example 30] | < 6.30 | < 5.30 | – | –
CCCC(N)c1cc(Cc2ccc(OC)c(F)c2)n(-c2ccc(Cl)cc2Cl)n1 (stereo not shown) [Example 31, 1-[1-(2,4-Dichlorophenyl)-5-(3-fluoro-4-methoxybenzyl)-1H-pyrazol-3-yl]butan-1-amine] | < 6.30 | < 5.30 | – | –
NCc1cc(Cc2cccc(O)c2)n(-c2ccc(Cl)cc2Cl)n1 [Example 34, 3-{[3-(Aminomethyl)-1-(2,4-dichlorophenyl)-1H-pyrazol-5-yl]methyl}phenol] | – | – | 6.30 to 7.00 | 5.52 to 6.30
COc1ccc(-n2nc(CN)cc2Cc2ccc(O)cc2)c(Cl)c1 [Example 37, 4-{[3-(Aminomethyl)-1-(2-chloro-4-methoxyphenyl)-1H-pyrazol-5-yl]methyl}phenol] | – | – | > 7.00 | 5.52 to 6.30
NCc1cc(Cc2ccc(O)cc2)n(-c2ccc(Cl)cc2Cl)n1 [Example 38, 4-{[3-(Aminomethyl)-1-(2,4-dichlorophenyl)-1H-pyrazol-5-yl]methyl}phenol] | – | – | > 7.00 | 5.52 to 6.30
NCc1cc(Cc2ccc(O)cc2)n(-c2ccc(O)cc2Cl)n1 [Example 41, 4-[3-(Aminomethyl)-5-(4-hydroxybenzyl)-1H-pyrazol-1-yl]-3-chlorophenol] | – | – | > 7.00 | < 5.30
NCc1cc(Cc2ccc(O)cc2)n(-c2ccc(F)cc2Cl)n1 [Example 42, 4-{[3-(Aminomethyl)-1-(2-chloro-4-fluorophenyl)-1H-pyrazol-5-yl]methyl}phenol] | – | – | 6.30 to 7.00 | 5.52 to 6.30
NCc1cc(Cc2ccc(O)cc2)n(-c2ccccn2)n1 [Example 43, 4-{[3-(Aminomethyl)-1-(pyridin-2-yl)-1H-pyrazol-5-yl]methyl}phenol] | < 6.30 | < 5.30 | – | –
CC(C)Cn1nc(CN)cc1Cc1ccc(O)cc1 [Example 44, 4-{[3-(Aminomethyl)-1-isobutyl-1H-pyrazol-5-yl]methyl}phenol] | – | – | < 6.30 | > 6.30
NCc1cc(Cc2ccc(O)cc2)n(Cc2ccc(Cl)cc2)n1 [Example 45, 4-{[3-(Aminomethyl)-1-(4-chlorobenzyl)-1H-pyrazol-5-yl]methyl}phenol] | < 6.30 | 5.52 to 6.30 | – | –
NCc1cc(Cc2ccc(O)cc2)n(Cc2ccccc2)n1 [Example 46, 4-{[3-(Aminomethyl)-1-benzyl-1H-pyrazol-5-yl]methyl}phenol] | < 6.30 | 5.30 to 5.52 | – | –
NCc1cc(Cc2ccc(O)cc2)n(Cc2ccccc2Cl)n1 [Example 47, 4-{[3-(Aminomethyl)-1-(2-chlorobenzyl)-1H-pyrazol-5-yl]methyl}phenol] | < 6.30 | 5.52 to 6.30 | – | –
CC(N)c1cc(Cc2ccc(O)cc2)n(-c2ccc(Cl)cc2Cl)n1 (stereo not shown) [Example 51, 4-{[3-(1-Aminoethyl)-1-(2,4-dichlorophenyl)-1H-pyrazol-5-yl]methyl}phenol] | – | – | > 7.00 | > 6.30
CC(N)c1cc(Cc2ccc(O)c(F)c2)n(-c2ccc(Cl)cc2Cl)n1 (stereo not shown) [Example 52, 4-{[3-(1-Aminoethyl)-1-(2,4-dichlorophenyl)-1H-pyrazol-5-yl]methyl}-2-fluorophenol] | – | – | > 7.00 | > 6.30
CCCC(N)c1cc(Cc2ccc(O)c(F)c2)n(-c2ccc(Cl)cc2Cl)n1 (stereo not shown) [Example 53, 4-{[3-(1-Aminobutyl)-1-(2,4-dichlorophenyl)-1H-pyrazol-5-yl]methyl}-2-fluorophenol] | – | – | > 7.00 | > 6.30

The next lines start with results.

pKi (human μ-opioid receptor; [2]) | pKi [1, 3] | Compound | pKi (human μ-opioid receptor) | pKi [1]
< 6.30 | < 5.30 | CS(=O)(=O)Nc1ccc(Oc2cc(CN)nn2-c2ccc(Cl)cc2Cl)cc1 [Example 18, N-(4-{[3-(Aminomethyl)-1-(2,4-dichlorophenyl)-1H-pyrazol-5-yl]oxy}phenyl)methanesulfonamide] | – | –
< 6.30 | 5.52 to 6.30 | COc1ccc(Cc2cc(CN)nn2-c2ccccc2)cc1 [Example 19, [5-(4-Methoxybenzyl)-1-phenyl-1H-pyrazol-3-yl]methanamine] | – | –
< 6.30 | 5.30 to 5.52 | COc1ccc(Cc2cc(CN)nn2-c2ccccn2)cc1 [Example 20, [5-(4-Methoxybenzyl)-1-(pyridin-2-yl)-1H-pyrazol-3-yl]methanamine] | – | –
< 6.30 | 5.30 to 5.52 | CNCc1cc(Cc2ccc(OC)cc2)n(-c2ccc(Cl)cc2Cl)n1 [Example 22, 1-[1-{2,4-Dichlorophenyl)-5-(4-methoxybenzyl)-1H-pyrazol-3-yl]-N-methylmethanamine] | – | –
< 6.30 | 5.52 to 6.30 | CCOc1ccc(Cc2cc(C(C)N)nn2-c2ccc(Cl)cc2Cl)cc1 (stereo not shown) [Example 25, 1-[1-(2,4-Dichlorophenyl)-5-(4-ethoxybenzyl)-1H-pyrazol-3-yl]ethanamine] | – | –
< 6.30 | < 5.30 | COc1ccc(Cl)c(-n2nc(C(C)N)cc2Cc2ccc(O)cc2)c1 (stereo not shown) [Example 28, 4-{[3-(1-Aminoethyl)-1-(2-chloro-5-methoxyphenyl)-1H-pyrazol-5-yl]methyl}phenol] | – | –
< 6.30 | < 5.30 | CCC(N)c1cc(Cc2ccc(OC)cc2)n(-c2ccc(Cl)cc2Cl)n1 (stereo not shown) [Example 32, 1-[1-(2,4-Dichlorophenyl)-5-(4-methoxybenzyl)-1H-pyrazol-3-yl]propan-1-amine] | – | –
< 6.30 | < 5.30 | COc1ccc(C(C)(C)c2cc(C(C)N)nn2-c2ccc(Cl)cc2Cl)cc1 (stereo not shown) [Example 33, 1-[1-(2,4-Dichlorophenyl)-5-(2-(4-methoxyphenyl)propan-2-yl)-1H-pyrazol-3-yl]ethanamine] | – | –
< 6.30 | 5.30 to 5.52 | NCc1cc(Cc2ccccc2)n(-c2ccc(O)cc2)n1 [Example 35, 4-[3-(Aminomethyl)-5-benzyl-1H-pyrazol-1-yl]phenol] | – | –
< 6.30 | 5.30 to 5.52 | NCc1cc(Cc2ccccc2)n(-c2cccc(O)c2)n1 [Example 36, 3-[3-(Aminomethyl)-5-benzyl-1H-pyrazol-1-yl]phenol] | – | –
< 6.30 | 5.52 to 6.30 | NCc1cc(Cc2ccc(O)cc2)n(-c2ccccc2Cl)n1 [Example 39, 4-{[3-(Aminomethyl)-1-(2-chlorophenyl)-1H-pyrazol-5-yl]methyl}phenol] | – | –
< 6.30 | 5.30 to 5.52 | NCc1cc(Cc2ccc(O)cc2)n(-c2ccc(Cl)cc2)n1 [Example 40, 4-{[3-(Aminomethyl)-1-(4-chlorophenyl)-1H-pyrazol-5-yl]methyl}phenol] | – | –
< 6.30 | 5.52 to 6.30 | NCc1cc(Cc2ccc(O)cc2)n(Cc2ccc(Cl)cc2Cl)n1 [Example 48] | – | –
< 6.30 | < 5.30 | CC(c1ccccc1)n1nc(CN)cc1Cc1ccc(O)cc1 (stereo not shown) [Example 49, 4-{[3-(Aminomethyl)-1-(1-phenylethyl)-1H-pyrazol-5-yl]methyl}phenol] | – | –
< 6.30 | 5.30 to 5.52 | CCNCc1cc(Cc2ccc(O)cc2)n(CC(C)C)n1 [Example 50, 4-({3-[{Ethylamino)methyl]-1-isobutyl-1H-pyrazol-5-yl}methyl)phenol] | – | –
